Assay results taken from EP0726261A1, “Herbidical 1,2,4 thiadiazoles” (American Cyanamid Company, priority 1995, dated 1996).

Assays:
Format in all cases: in vivo
[1] = test system: Avena fatua; test: Herbicidal activity, preemergence test (Example 66); design: key: A rating of 0 indicates growth as untreated control; a rating of 9 indicates death; conditions: pre; 1000 g/ha; assessed visually twenty days after spraying
Description: (§1) To evaluate their herbicidal activity, compounds according to the invention are tested using a representative range of plants: ZEAMX Zea mays ORYSA Oryza sativa GLXMA Glycine max BEAVA Beta vulgaris LIUUT Linum usitatissimum AVEFA Avena fatua ECHCG Echinochloa crus-galli SINAL Sinapsis alba
(§2) The tests fall into two categories, preemergence and postemergence. The preemergence tests involve spraying a liquid formulation of the compound onto the soil in which the seeds of the plant species mentioned above have recently been sown. The postemergence tests involve spraying a liquid formulation of the compound onto seedling plants of the above species.
(§3) The soil used in the tests is a prepared horticultural loam.
(§4) The formulations used in the tests are prepared from solutions of the test compounds in acetone containing 0.4% by weight of an alkylphenol/ethylene oxide condensate available under the trademark TRITON X-155. These acetone solutions are diluted with water and the resulting formulations applied at dosage levels corresponding to 1000 g of active material per hectare in a volume equivalent to 900 litres per hectare.
(§5) In the preemergence tests, untreated sown soil, and in the postemergence tests, untreated soil bearing seedling plants, are used as controls.
(§6) The herbicidal effects of the test compounds are assessed visually twenty days after spraying the foliage and the soil and are recorded on a 0-9 scale. A rating of 0 indicates growth as untreated control, a rating of 9 indicates death. An increase of 1 unit on the linear scale approximates to an 11% increase in the level of effect.

[2] = test system: Beta vulgaris; test: as above; design: key: A rating of 0 indicates growth as untreated control; a rating of 9 indicates death; conditions: pre; 1000 g/ha; assessed visually twenty days after spraying
Description: as §1, §2, §3, §4, §5, §6

[3] = test system: Echinochloa crus-galli; test: as above; design: key: A rating of 0 indicates growth as untreated control; a rating of 9 indicates death; conditions: pre; 1000 g/ha; assessed visually twenty days after spraying
Description: as §1, §2, §3, §4, §5, §6

[4] = test system: Glycine max; test: as above; design: key: A rating of 0 indicates growth as untreated control; a rating of 9 indicates death; conditions: pre; 1000 g/ha; assessed visually twenty days after spraying
Description: as §1, §2, §3, §4, §5, §6

[5] = test system: Linum usitatissimum; test: as above; design: key: A rating of 0 indicates growth as untreated control; a rating of 9 indicates death; conditions: pre; 1000 g/ha; assessed visually twenty days after spraying
Description: as §1, §2, §3, §4, §5, §6

[6] = test system: Oryza sativa; test: as above; design: key: A rating of 0 indicates growth as untreated control; a rating of 9 indicates death; conditions: pre; 1000 g/ha; assessed visually twenty days after spraying
Description: as §1, §2, §3, §4, §5, §6

[7] = test system: Sinapsis alba; test: as above; design: key: A rating of 0 indicates growth as untreated control; a rating of 9 indicates death; conditions: pre; 1000 g/ha; assessed visually twenty days after spraying
Description: as §1, §2, §3, §4, §5, §6

[8] = test system: Zea mays; test: as above; design: key: A rating of 0 indicates growth as untreated control; a rating of 9 indicates death; conditions: pre; 1000 g/ha; assessed visually twenty days after spraying
Description: as §1, §2, §3, §4, §5, §6

[9] = test system: Glycine max; test: Herbicidal activity, postemergence test (Example 66); conditions: post; 1000 g/ha; assessed visually twenty days after spraying
Description: as §1, §2, §3, §4, §5, §6

[10] = test system: Avena fatua; test: as above; design: key: A rating of 0 indicates growth as untreated control; a rating of 9 indicates death; conditions: post; 1000 g/ha; assessed visually twenty days after spraying
Description: as §1, §2, §3, §4, §5, §6

[11] = test system: Beta vulgaris; test: as above; design: key: A rating of 0 indicates growth as untreated control; a rating of 9 indicates death; conditions: post; 1000 g/ha; assessed visually twenty days after spraying
Description: as §1, §2, §3, §4, §5, §6

[12] = test system: Echinochloa crus-galli; test: as above; design: key: A rating of 0 indicates growth as untreated control; a rating of 9 indicates death; conditions: post; 1000 g/ha; assessed visually twenty days after spraying
Description: as §1, §2, §3, §4, §5, §6

[13] = test system: Linum usitatissimum; test: as above; design: key: A rating of 0 indicates growth as untreated control; a rating of 9 indicates death; conditions: post; 1000 g/ha; assessed visually twenty days after spraying
Description: as §1, §2, §3, §4, §5, §6

[14] = test system: Oryza sativa; test: as above; design: key: A rating of 0 indicates growth as untreated control; a rating of 9 indicates death; conditions: post; 1000 g/ha; assessed visually twenty days after spraying
Description: as §1, §2, §3, §4, §5, §6

[15] = test system: Sinapsis alba; test: as above; design: key: A rating of 0 indicates growth as untreated control; a rating of 9 indicates death; conditions: post; 1000 g/ha; assessed visually twenty days after spraying
Description: as §1, §2, §3, §4, §5, §6

[16] = test system: Zea mays; test: as above; design: key: A rating of 0 indicates growth as untreated control; a rating of 9 indicates death; conditions: post; 1000 g/ha; assessed visually twenty days after spraying
Description: as §1, §2, §3, §4, §5, §6

Row | Structure (SMILES) | herbicidal effects on a 0-9 scale, AVEFA [1] | herbicidal effects on a 0-9 scale, BEAVA [2] | herbicidal effects on a 0-9 scale, ECHCG [3] | herbicidal effects on a 0-9 scale, GLXMA [4] | herbicidal effects on a 0-9 scale, LIUUT [5] | herbicidal effects on a 0-9 scale, ORYSA [6] | herbicidal effects on a 0-9 scale, SINAL [7] | herbicidal effects on a 0-9 scale, ZEAMX [8] | herbicidal effects on a 0-9 scale, GLXMA [9] | herbicidal effects on a 0-9 scale, AVEFA [10] | herbicidal effects on a 0-9 scale, BEAVA [11] | herbicidal effects on a 0-9 scale, ECHCG [12] | herbicidal effects on a 0-9 scale, LIUUT [13] | herbicidal effects on a 0-9 scale, ORYSA [14] | herbicidal effects on a 0-9 scale, SINAL [15] | herbicidal effects on a 0-9 scale, ZEAMX [16]
1 | CC(NC(=O)c1nsc(-c2ccccc2)n1)c1cccs1 (racemic) [Example 22] | 0 | 2 | 2 | 0 | 0 | 0 | 3 | 1 | 6 | 4 | 9 | 5 | 6 | 2 | 7 | 2
2 | CC(C)c1nsc(C(=O)NC(C)c2cccs2)n1 (racemic) [Example 1, (R/S)-3-Isopropyl-[1,2,4]thiadiazole-5-carboxylic acid, [1-(2-thienyl)ethyl]amide] | 2 | 7 | 5 | 0 | 2 | 0 | 7 | 0 | 6 | 5 | 9 | 9 | 9 | 0 | 9 | 0
3 | CC(C)c1nsc(C(=O)NCc2cccs2)n1 [Example 9] | 0 | 0 | 2 | 0 | 0 | 0 | 4 | 0 | 2 | 0 | 7 | 5 | 2 | 0 | 7 | 2
4 | CC(C)Cc1nsc(C(=O)NCc2cccs2)n1 [Example 11] | 0 | 0 | 0 | 0 | 0 | 0 | 0 | 0 | 2 | 0 | 4 | 2 | 2 | 0 | 7 | 0
5 | C[C@H](NC(=O)c1nc(-c2ccccc2)ns1)c1ccccc1 [Example 5] | 0 | 4 | 0 | 0 | 0 | 0 | 0 | 0 | 4 | 6 | 5 | 8 | 7 | 0 | 9 | 2
6 | CC(C)Cc1nsc(C(=O)N[C@@H](C)c2ccccc2)n1 [Example 13, (S)-3-Isobutyl-[1,2,4]thiadiazole-5-carboxylic acid, 1-(phenylethyl)amide] | 0 | 5 | 2 | 0 | 0 | 0 | 4 | 0 | 5 | 5 | 9 | 8 | 7 | 0 | 8 | 2
7 | CC(NC(=O)c1nc(C(C)(C)C)ns1)c1cccs1 (racemic) [Example 6, (R/S)-3-tert-Butyl-[1,2,4]thiadiazole-5-carboxylic acid, [1-(2-thienyl)ethyl]amide] | 0 | 9 | 0 | 0 | 3 | 0 | 7 | 0 | 7 | 7 | 9 | 9 | 9 | 2 | 9 | 0
